System: Aedes aegypti
Assay: Warm Body Assay, in-vitro repulsion of mosquitoes
Settings: 100% at concentration 0
Description: The arthropod controlling effect according to the present invention is determined on mosquitoes using an adapted Warm Body assay as defined in Kröber T, Kessler S, Frei J, Bourquin M, Guerin P M. An in vitro assay for testing mosquito controlling compounds employing a warm body and carbon dioxide as a behavioral activator. J Am Mosq Control Assoc. 2010; 26:381-386.
The controlling effect according to the present invention is determined by testing the Warm Body assay against the yellow fever mosquito, Aedes aegypti Rockefeller strain. […] Observations of controlling efficacy were made on host-seeking females of uniform age, 5 to 10 days old selected as mentioned in the publication mentioned hereinabove. Tested hungry females had access to 10% sugar solution but were not blood-fed.
(§1) The published protocol has been adapted in not manually counting the landing mosquitoes but automatically using an automatic counting software, the switch from Anopheles gambiae to A. aegypti led to a decrease of mosquitoes' number placed in the tested cage due to the size difference (i.e. 30 mosquitoes instead of 50) and to an increase of lighting as A. aegypti is a diurnal mosquitoes (i.e. 150 lux instead of 4 lux).
The controlling efficacy in vitro was by an adapted Warm Body assay as defined in Kröber T, Kessler S, Frei J, Bourquin M, Guerin P M. An in vitro assay for testing mosquito controlling compounds employing a warm body and carbon dioxide as a behavioral activator. J Am Mosq Control Assoc. 2010; 26:381-386. The controlling effect according to the present invention is determined by testing the Warm Body assay against the yellow fever mosquito, A. aegypti Rockefeller strain.
as §1, with “Observations of controlling efficacy were made on host-seeking females of uniform age, 5 to 10 days old selected as mentioned in the publication mentioned hereinabove. Tested hungry females had access to 10% sugar solution but were not blood-fed. The” for “The”
In this in-vitro assay the number of A. aegypti landing on a warm body treated with the tested stimuli was measured in order to assess the repellency effect. […]

SMILES	Mean ± SD of normalized repulsion of mosquitoes Aedes aegypti (concentration 0.016 mg/mL)	Mean ± SD of normalized repulsion of mosquitoes Aedes aegypti (concentration 0.08 mg/mL)	Mean ± SD of normalized repulsion of mosquitoes Aedes aegypti (concentration 0.4 mg/mL)	Mean ± SD of normalized repulsion of mosquitoes Aedes aegypti (concentration 2 mg/mL)	Mean ± SD of normalized repulsion of mosquitoes Aedes aegypti (concentration 10 mg/mL)
CCN(CC)C(=O)c1cccc(C)c1 [DEET, N,N-diethyl-3-methylbenzamide]	90% ± 9%	42% ± 7%	11% ± 5%	2% ± 1%	3% ± 3%
CCCCN(CCC(=O)OCC)C(C)=O [IR3535, ethyl butylacetylaminopropionate]	103% ± 20%	108% ± 14%	31% ± 5%	22% ± 9%	11% ± 2%

From US20220142158A1, “ARTHROPOD CONTROL COMPOSITIONS” (FIRMENICH SA, priority 2019, published 2022)
